Experimental data taken from patent US10195185B2, “3-(1H-imidazo[4,5-C]pyridin-2-yl)-1H-pyrazolo[4,3-B]pyridines and therapeutic uses thereof” (Samumed, LLC, priority 2015, dated 2019).
pEC50: −log10 of the molar value.

Experiments:
Format in all cases: cell-based
[1] = tested on: Wnt activity (Wnt-responsive human Sp5 promoter, TCF/LEF binding sites) in SW480 colon carcinoma cells; assay: Wnt activity screening assay: Sp5-Luc luciferase reporter gene in SW480 cells; settings: for pEC50: 10-point dose-response from 10 μM, incubated overnight; for inhibition at 10 µM: given for EC50 of >10 μM, read-out: percent inhibition at 10 μM
Procedure, shortened: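 Luminescence (BrightGlo) was normalised to DMSO-only wells and fitted with a four-parameter variable-slope model for EC50; beyond 10 μM, % inhibition at 10 μM is given. Stable Sp5-Luc SW480 reporter cells, 4,000/well in 1% FBS, were exposed overnight at 37 °C to compounds, top 10 μM, 1:3 dilutions, 0.1% DMSO.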

SW480 colon cancer cells = assay: Cell viability assay (CellTiter-Blue), four days; settings: Homo sapiens, 96 h; for inhibition at 10 µM: read-out: percent inhibition at 10 μM (given for EC50 of >10 μM); for pEC50: CellTiter-Blue cell viability
Procedure, shortened: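 Four-day viability readout in SW480 cells: compound at 0.0045–10 μM (1:3 series), DMSO controls in eight replicates, CellTiter-Blue fluorescence after ~3 h. Values are regression-derived EC50s, or percent inhibition at 10 μM when EC50 exceeds 10 μM.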

[2] = tested on: IL-6 in human monocyte cell line (THP-1 cells); assay: IL-6 inhibition in LPS-stimulated THP-1 cells (HTRF); settings: IL-6 in LPS-stimulated THP-1 cells; for pEC50: HTRF; for inhibition at 10 µM: read-out: percent inhibition in brackets beside EC50 >10 μM
Procedure, shortened: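 Readout is the 665/620 nm HTRF ratio for secreted IL-6, normalized to DMSO wells, with EC50 from a variable-slope four-parameter fit, or % inhibition at 10 μM when above 10 μM. Cells (1% FBS, 24 h beforehand) got compound for 2 h, then LPS 500 ng/mL for 22 h at 37° C; top dose 10 μM, 0.1% DMSO.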

pEC50 [1]	pEC50 (SW480 colon cancer cells)	pEC50 [2]	Compound	inhibition at 10 µM [1] [%]	inhibition at 10 µM (SW480 colon cancer cells) [%]	inhibition at 10 µM [2] [%]
< 5.00	< 5.00	< 5.00	COc1cccc(-c2nccc3[nH]c(-c4n[nH]c5ccc(-c6cncc(NC(=O)CC(C)(C)C)c6)nc45)nc23)c1 [Compound 1006, N-(5-(3-(4-(3-methoxyphenyl)-1H-imidazo[4,5-c]pyridin-2-yl)-1H-pyrazolo [4,3-b]pyridin-5-yl)pyridin-3-yl)-3,3-dimethylbutanamide]	16.6	0	32.3
6.05	5.67	< 5.00	O=C(Nc1cncc(-c2ccc3[nH]nc(-c4nc5c(-c6ccc(Cl)s6)nccc5[nH]4)c3n2)c1)C1CCC1 [Compound 1056, N-(5-(3-(4-(5-Chlorothiophen-2-yl)-1H-imidazo[4,5-c]pyridin-2-yl)-1H-pyrazolo[4,3-b]pyridin-5-yl)pyridin-3-yl)cyclobutanecarboxamide]	–	–	0
< 5.00	< 5.00	< 5.00	Cn1cc(-c2ccc3[nH]nc(-c4nc5c(N6CCCCC6)nccc5[nH]4)c3n2)c(CO)n1 [Compound 1133, (1-Methyl-4-(3-(4-(piperidin-1-yl)-1H-imidazo[4,5-c]pyridin-2-yl)-1H-pyrazolo [4,3-b]pyridin-5-yl)-1H-pyrazol-3-yl)methanol]	49.6	28.2	0
6.26	5.91	< 5.00	Fc1cccc(-c2nccc3[nH]c(-c4n[nH]c5ccc(-c6cncc(CN7CCC(F)(F)C7)c6)nc45)nc23)c1 [Compound 26, 5-(5-((3,3-Difluoropyrrolidin-1-yl)methyl)pyridin-3-yl)-3-(4-(3-fluorophenyl)-1H-imidazo[4,5-c]pyridin-2-yl)-1H-pyrazolo[4,3-b]pyridine]	–	–	0
< 5.00	< 5.00	< 5.00	O=C(Nc1cncc(-c2ccc3[nH]nc(-c4nc5cnccc5[nH]4)c3n2)c1)C1CCCCC1 [Compound 275, N-(5-(3-(1H-Imidazo[4,5-c]pyridin-2-yl)-1H-pyrazolo[4,3-b]pyridin-5-yl)pyridin-3-yl)cyclohexanecarboxamide]	0	0	31.5
< 5.00	< 5.00	< 5.00	c1cc2[nH]c(-c3n[nH]c4ccc(-c5cn[nH]c5)nc34)nc2cn1 [Compound 651, 3-(1H-Imidazo[4,5-c]pyridin-2-yl)-5-(1H-pyrazol-4-yl)-1H-pyrazolo[4,3-b]pyridine]	22.3	13.5	0
